NC(N)=C([N+](=O)[O-])[N+](=O)[O-]
solubility (mole fraction)
Settings | 293.15 K | 303.15 K | 313.15 K | 323.15 K | 333.15 K | 343.15 K | 353.15 K | 363.15 K
in DMF | 0.0918 | 0.102 | 0.11 | 0.119 | 0.129 | 0.137 | 0.148 | 0.162
in DMSO | 0.183 | 0.191 | 0.199 | 0.207 | 0.217 | 0.229 | 0.242 | 0.254
in NMP | 0.168 | 0.178 | 0.184 | 0.194 | 0.203 | 0.214 | 0.227 | 0.24

From BigSolDB 2.1
